Assay results taken from patent US20040235834A1, “Thiazoles useful as inhibitors of protein kinases” (priority 2003, published 2004).

Legend:
ZAP-70 = biological target: T1, ZAP-70 (Homo sapiens, UniProt P43403); assay: ZAP-70 inhibition assay (standard coupled enzyme assay); assay type: biochemical; settings: 100 μM ATP, 20 μM poly-4EY peptide, 30° C., 60 nM ZAP-70
T1 sequence (P43403 1-619): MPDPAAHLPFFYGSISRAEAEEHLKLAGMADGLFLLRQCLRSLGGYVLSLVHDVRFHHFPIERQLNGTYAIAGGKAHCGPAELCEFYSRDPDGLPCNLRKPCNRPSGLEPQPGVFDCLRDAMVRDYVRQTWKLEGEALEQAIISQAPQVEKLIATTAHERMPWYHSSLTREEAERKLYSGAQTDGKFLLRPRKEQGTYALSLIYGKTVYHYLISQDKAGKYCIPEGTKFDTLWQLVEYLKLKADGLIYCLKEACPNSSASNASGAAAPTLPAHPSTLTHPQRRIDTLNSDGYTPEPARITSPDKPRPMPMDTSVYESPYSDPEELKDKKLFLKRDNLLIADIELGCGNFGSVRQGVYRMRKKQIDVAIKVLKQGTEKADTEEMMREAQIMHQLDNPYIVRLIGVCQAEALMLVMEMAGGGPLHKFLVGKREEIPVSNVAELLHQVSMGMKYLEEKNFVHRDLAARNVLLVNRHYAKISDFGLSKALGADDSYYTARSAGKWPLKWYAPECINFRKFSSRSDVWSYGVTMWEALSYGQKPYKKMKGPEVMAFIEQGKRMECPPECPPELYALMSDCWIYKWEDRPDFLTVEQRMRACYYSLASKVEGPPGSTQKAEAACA
Procedure: Compounds were screened for their ability to inhibit ZAP-70 using a standard coupled enzyme assay (Fox et al., Protein Sci. 1998, 7, 2249). Assays were carried out in a mixture of 100 mM HEPES (pH 7.5), 10 mM MgCl2, 25 mM NaCl, 2 mM DTT and 3% DMSO. Final substrate concentrations in the assay were 100 μM ATP (Sigma Chemicals) and 20 μM peptide (poly-4EY, Sigma Chemicals). Assays were carried out at 30° C. and 60 nM ZAP-70. Final concentrations of the components of the coupled enzyme system were 2.5 mM phosphoenolpyruvate, 300 μM NADH, 30 μg/ml pyruvate kinase and 10 μg/ml lactate dehydrogenase.
An assay stock buffer solution was prepared containing all of the reagents listed above, with the exception of ZAP-70 and the test compound of interest of the present invention. 55 μl of the stock solution was placed in a 96 well plate followed by addition of 2 μl of DMSO stock containing serial dilutions of the test compound of the present invention (typically starting from a final concentration of 15 μM). The plate was preincubated for 10 minutes at 30° C. and the reaction initiated by addition of 10 μl of enzyme (final concentration 60 nM). Initial reaction rates were determined with a Molecular Devices SpectraMax Plus plate reader over a 15 minute time course. Ki data was calculated from non-linear regression analysis using the Prism software package (GraphPad Prism version 3.Oa for Macintosh, GraphPad Software, San Diego Calif., USA).

SYK = SYK (Homo sapiens, UniProt P43405); assay: SYK inhibition assay (standard coupled enzyme assay); assay type: biochemical; settings: 200 μM ATP, 4 μM poly Gly-Tyr peptide, 30° C.
Procedure: Compounds were screened for their ability to inhibit SYK using a standard coupled enzyme assay (Fox et al., Protein Sci. 1998, 7, 2249). Reactions were carried out in 100 mM HEPES (pH 7.5), 10 mM MgCl2, 25 mM NaCl, 1 mM DTT and 1.5% DMSO. Final substrate concentrations in the assay were 200 μM ATP (Sigma chemical Co.) and 4 μM poly Gly—Tyr peptide (Sigma Chemical Co.). Assays were carried out at 30° C. and 200 nM SYK. Final concentrations of the components of the coupled enzyme system were 2.5 mM phosphoenolpyruvate, 300 μM NADH, 30 μg/ml pyruvate kinase and 10 μg/ml lactate dehydrogenase.
An assay stock buffer solution was prepared containing all of the reagents listed above, with the exception of SYK, DTT, and the test compound of interest of the present invention. 56 μl of the test reaction was placed in a 96 well plate followed by the addition of 1 μl of 2 mM DMSO stock containing the test compound of the present invnetion (final compound concentration 30 μM). The plate was pre-incubated for ˜10 minutes at 30° C. and the reaction initiated by the addition of 10 μl of enzyme (final concentration 25 nM).

| Ki (ZAP-70) | Ki (SYK) | SMILES |
| --- | --- | --- |
| ≤ 5 µM | ≤ 5 µM | CC(=O)c1nc(-c2ccnc(Nc3cc(C)cc(C)c3)n2)cs1 [Compound I-3] |
| ≤ 5 µM | ≤ 5 µM | Cc1cc(Nc2nccc(-c3cscn3)n2)cc(C(F)(F)F)c1 [Compound I-5] |
| ≤ 5 µM | ≤ 5 µM | Cc1cc(C)cc(Nc2nccc(-c3csc(CO)n3)n2)c1 [Compound I-4] |
| ≤ 5 µM | ≤ 5 µM | COc1cc(Nc2nccc(-c3cscn3)n2)cc(C(F)(F)F)c1 [Compound I-2] |
| ≤ 5 µM | ≤ 5 µM | Cc1cc(C)cc(Nc2nccc(-c3cscn3)n2)c1 [Compound I-1] |
| ≤ 5 µM | ≤ 5 µM | Oc1cc(Nc2nccc(-c3cscn3)n2)cc(C(F)(F)F)c1 [Compound I-6] |
